In patent publication US20100069400A1, “METHODS FOR TREATING INFLAMMATION AND RELATED CONDITIONS” (Ore Pharmaceuticals Inc., priority 2008, published 2010):

Columns and labels:
adrenergic receptor al = conditions: compared with its 5-HT2A affinity; cited from earlier work
TNF-α = assay: LPS-induced plasma TNF-α, bead-based immunoassay (Luminex); type: in vivo, mice; conditions: 2-hour time point post-LPS; mouse plasma
Procedure: (§1) The intriguing bi-phasic modulation of NF-κB activation described in Example 1 was further investigated by repeating the LPS induction experiment and performing subsequent imaging analysis at 0 hour and 2, 4, 6 and 24 hours post-LPS treatment. Moreover, blood samples were collected at each of the timepoints and plasma was prepared for evaluation of effects of irindalone on quantities of circulating cytokines. […] Specifically, irindalone suppressed LPS-induced pro-inflammatory cytokines eotaxin (FIG. 3A) and TNF-α (FIG. 3B) at the 2-hour time point and IL-1α at both 2 hours and 6 hours post-LPS injection (FIG. 3C).

5-HT2A = 5-HT2A (Homo sapiens, UniProt P28223); conditions: cited from earlier work
5-HT2A, sequence (P28223 whole entry, species assumed): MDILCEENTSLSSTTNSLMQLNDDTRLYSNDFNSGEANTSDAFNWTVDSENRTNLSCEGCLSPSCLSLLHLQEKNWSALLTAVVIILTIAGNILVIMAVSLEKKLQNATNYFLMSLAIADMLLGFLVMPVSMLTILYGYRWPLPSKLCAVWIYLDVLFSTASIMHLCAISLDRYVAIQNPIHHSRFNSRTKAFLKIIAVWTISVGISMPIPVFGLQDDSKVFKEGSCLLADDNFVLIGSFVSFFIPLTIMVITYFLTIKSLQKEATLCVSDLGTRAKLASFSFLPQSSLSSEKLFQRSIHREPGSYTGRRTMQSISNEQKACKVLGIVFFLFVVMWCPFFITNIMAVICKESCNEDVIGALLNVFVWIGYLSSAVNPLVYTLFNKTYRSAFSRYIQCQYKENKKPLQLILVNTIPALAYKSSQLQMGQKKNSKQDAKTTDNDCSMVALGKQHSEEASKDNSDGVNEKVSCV

AP-1 = assay: TPA-induced AP-1:LUC reporter activation in skin of AP-1:LUC transgenic mice; type: in vivo; conditions: irindalone 1 and 10 mg/kg p.o. (dose-dependent) or DEX 4.5 mg/kg i.p. one hour prior to topical TPA 10 μg
Procedure: The AP-1:LUC transgenic line was constructed with four copies of the AP-1 response element fused to a firefly luciferase reporter. […] For the current studies, the backs of mice (n=5 per group) were shaved (area size approximately 1.5×3 cm) and pre-imaged. Mice were administered vehicle (saline), irindalone (dosing at 1 and 10 mg/kg; p.o.) or dexamethasone as a positive control (DEX, 4.5 mg/kg, i.p.) one hour prior to topical application of the phorbol ester 12-O-tetradecanoyl-phorbol-13-acetate (TPA, 0.05 mg/ml in acetone; total dose 10 μg).

HO-1 promoter = assay: CdCl2-induced HO-1:LUC promoter activation in HO-1:LUC transgenic mice; type: in vivo
Excerpt: The HO-1 luciferase transgenic mouse line was constructed using 15,000 base pairs of the HO-1 promoter fused to a firefly luciferase reporter. The HO-1 promoter is highly responsive to oxidative stress, hypoxia and other stimuli that influence the oxidative state of the animal. Increased expression of the HO-1 pathway limits tissue damage in response to a wide variety of proinflammatory stimuli associated with oxidative stress including hypoxia, hyperoxia, cytokines, nitric oxide (NO), heavy metals, ultraviolet-A radiation, heat shock, shear stress, hydrogen peroxide, and thiol (—SH)-reactive substances, endotoxin, allograft rejection, etc. This promoter region has several enhancer sequences that confer responsiveness to the wide set of stimuli mentioned above. In this mouse model, luciferase expression is an indicator of the induction of the HO-1 promoter/gene expression. In order to assess the ability of irindalone to modulate the oxidative state of mice stressed with cadmium chloride (CdCl2), male mice (n=5 per group) were dosed with irindalone (0, 1 or 10 mg/kg, p.o.) one hour prior to injection with CdCl2 (2 mg/kg, i.v.). Whole body images were obtained prior to irindalone pretreatment (0 hour) and again at 4, 6, and 24 hours post-CdCl2 treatment. Irindalone suppressed CdCl2-induced luciferase expression (FIG. 6). […] Additional anatomical regions also posted trends in suppression at early time points.

CXCL1 (GRO/KC) = assay: plasma CXCL1 (GRO/KC) in normal unstimulated rats, bead-based multiplex immunoassay (Luminex); type: in vivo; conditions: 1 and 5 mg/kg oral twice daily for 7 days, blood approximately 4 hours after last dose, not dose-proportionately
Procedure: (§2) The effects of irindalone were also investigated in normal unstimulated rats that were subject to twice-daily oral dosing with irindalone (1 and 5 mg/kg) for 7 consecutive days. Blood was collected approximately 4 hours after administration of the last dose, plasma was prepared and cytokines were measured using a bead-based multiplex immunoassay (Luminex Corp.).

histamine H1 receptor = histamine H1 receptor (Homo sapiens, UniProt P35367); conditions: compared with its 5-HT2A affinity; cited from earlier work
histamine H1 receptor, sequence (P35367 whole entry, species assumed): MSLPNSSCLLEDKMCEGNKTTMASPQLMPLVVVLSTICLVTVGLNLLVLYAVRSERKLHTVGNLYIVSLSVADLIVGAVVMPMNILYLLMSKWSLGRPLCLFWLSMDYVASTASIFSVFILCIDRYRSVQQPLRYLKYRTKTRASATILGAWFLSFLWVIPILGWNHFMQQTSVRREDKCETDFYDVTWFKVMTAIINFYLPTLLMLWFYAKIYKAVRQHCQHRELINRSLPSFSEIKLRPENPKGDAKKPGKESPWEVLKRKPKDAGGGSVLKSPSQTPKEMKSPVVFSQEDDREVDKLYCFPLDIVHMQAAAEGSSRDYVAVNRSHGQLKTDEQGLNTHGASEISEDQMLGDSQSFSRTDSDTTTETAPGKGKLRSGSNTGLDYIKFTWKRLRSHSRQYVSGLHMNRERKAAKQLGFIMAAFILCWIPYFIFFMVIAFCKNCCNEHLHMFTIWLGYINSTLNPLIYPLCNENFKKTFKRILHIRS

IL-10 = assay: LPS-induced plasma IL-10, bead-based immunoassay (Luminex); type: in vivo, mice; conditions: all time points measured (2, 4, 6, 24 hours post-LPS), most pronounced at 2 and 4 hours; mouse plasma
Procedure: as §1

NF-κB [1] = assay: in vivo imaging of LPS-induced NF-κB:luciferase reporter activation in NF-κB:LUC transgenic mice; conditions: for LPS-induced NF-κB reporter (fold change from 0 hour), Example 1: 1 or 10 mg/kg p.o. one hour prior to sLPS 2.5 mg/kg i.v., whole body imaging; for LPS-induced NF-κB activation, Example 2 (FIG. 2): repeat experiment
Procedure: Effects of irindalone on rodent physiological processes were evaluated using bio-photonic in vivo imaging. Specifically, this technology was used to investigate temporal and spatial modulation of physiological processes following acute compound administration. Transgenic mice expressing a firefly luciferase reporter driven by a series of promoters that represent a wide spectrum of potential disease states were used. Light emitted by luciferase in the presence of a luciferin substrate was detected and analyzed using a highly sensitive CCD imaging system. Mice were anesthetized and imaged at the indicated time points followed by visual and quantitative analysis based on counting photons of light emitted from specific regions of interest. Observations were followed by confirmatory and additional heuristic studies, including direct measurement of luciferase activity in harvested tissues and organs. As detailed below, the properties of irindalone were analyzed on three distinct transgenic lines, NF-κB:LUC, AP-1:LUC and HO-1:LUC. For this Example, the NF-κB transgenic mouse line was constructed using three NF-κB response elements fused to a firefly luciferase reporter. The effect of acute compound administration on inflammatory and immunomodulatory processes was monitored using activation of the luciferase reporter as a surrogate readout for activation of NF-κB transcription factor. […] For these studies, male mice (n=5 per group) were administered irindalone (0, 1 or 10 mg/kg, p.o.) one hour prior to injection with soluble lipopolysaccharide (sLPS, 2.5 mg/kg, i.v.). Whole body images were obtained prior to drug pretreatment (0 hour time point) and again at 2, 4, and 6 hours post-LPS treatment. […] The intriguing bi-phasic modulation of NF-κB activation described in Example 1 was further investigated by repeating the LPS induction experiment and performing subsequent imaging analysis at 0 hour and 2, 4, 6 and 24 hours post-LPS treatment. Moreover, blood samples were collected at each of the timepoints and plasma was prepared for evaluation of effects of irindalone on quantities of circulating cytokines.

NF-κB [2] = assay: LPS-induced NF-κB activation in harvested organs and tissues (luciferase/protein assay) of NF-κB:LUC transgenic mice; type: in vivo; conditions: 10 mg/kg p.o. one hour prior to LPS 2.5 mg/kg i.v.; 2 hours post-LPS; most pronounced changes in visceral fat, gastrointestinal tract and brain
Procedure: To determine whether these effects can be localized to a particular tissue or organ system, additional experimentation was performed (similar in design to that as described in Example 1). For these studies, male mice (n=5 per group) were administered irindalone (0 and 10 mg/kg, p.o.) one hour prior to injection with LPS (2.5 mg/kg, i.v.). Whole body images were obtained prior to drug pretreatment (0 hour) and again at 2 hours post-LPS treatment (data not shown). A broad collection of internal tissues and organs were then removed and snap frozen for further analysis. Specifically, harvested tissues were homogenized, cells were lysed and utilized for luciferase and protein quantification assays to obtain relative units of light/μg protein. Results (FIG. 4) illustrate normalized comparisons between LPS alone versus irindalone+LPS.

IL-1α = assay: LPS-induced plasma IL-1α, bead-based immunoassay (Luminex); type: in vivo, mice; conditions: mouse plasma
Procedure: as §1

IL-13 = assay: plasma IL-13 in normal unstimulated rats, bead-based multiplex immunoassay (Luminex); type: in vivo; conditions: 1 and 5 mg/kg oral twice daily for 7 days, blood approximately 4 hours after last dose
Procedure: as §2

eotaxin = assay: LPS-induced plasma eotaxin, bead-based immunoassay (Luminex); type: in vivo, mice; conditions: 2-hour time point post-LPS; mouse plasma
Procedure: as §1

For O=C1NCCN1CCN1CCN([C@@H]2C[C@@H](c3ccc(F)cc3)c3ccccc32)CC1 [Irindalone, (+)-(1R,3S)-1-[2-[4-[3-(p-fluorophenyl)-1-indanyl]-1-piperazinyl]-ethyl]-2-imidazolidinone], the “affinity for adrenergic receptor al, in words” value (adrenergic receptor al) is listed as “somewhat weaker affinity”, the “LPS-induced TNF-α level in plasma” value (TNF-α) is listed as “suppressed” and the IC50 (5-HT2A; read-out: affinity (IC50) for 5-HT2A) is listed as 3.4 nM. For the same compound, the “TPA-induced AP-1 activation in skin” value (AP-1) was “dramatically repressed”, the “CdCl2-induced luciferase expression (HO-1 promoter)” value (HO-1 promoter; 1 or 10 mg/kg p.o. one hour prior to CdCl2 2 mg/kg i.v., whole body images at 4, 6, 24 hours) was “suppressed” and the “CdCl2-induced luciferase expression (HO-1 promoter), mid back region” value (HO-1 promoter; mid back region, all time points (4, 6, 24 hours)) was “Dramatic suppression”. The “CdCl2-induced luciferase expression (HO-1 promoter), sublingual and lower back regions” value (HO-1 promoter; sublingual and lower back regions, earlier time points) was “Dramatic suppression”, the “CXCL1 (GRO/KC) levels in plasma” value (CXCL1 (GRO/KC)) was “lowered” and the “affinity for histamine H1 receptor, in words” value (histamine H1 receptor) was “somewhat weaker affinity”. The “anti-inflammatory cytokine IL-10 level in plasma” value (IL-10) was “increase”, the “LPS-induced NF-κB reporter (fold change from 0 hour), Example 1” value (NF-κB [1]; after 2 hours) was “broad suppression” and the “LPS-induced NF-κB reporter (fold change from 0 hour), Example 1” value (NF-κB [1]; after 6 hours) was “broad enhancement”. For the same compound, the “LPS-induced NF-κB activation, Example 2 (FIG. 2)” value (NF-κB [1]; early time point (2 hours) post-LPS) was “suppression”, the “LPS-induced NF-κB activation, Example 2 (FIG. 2)” value (NF-κB [1]; later time points (4, 6, 24 hours imaged) post-LPS) was “enhancement” and the “LPS-induced NF-κB activation in harvested tissues (units of light/μg protein, normalized)” value (NF-κB [2]) was “Tissue-Selective Effect”. For the same compound, the “LPS-induced IL-1α level in plasma” value (IL-1α; 2 hours post-LPS injection) was “suppressed”, the “LPS-induced IL-1α level in plasma” value (IL-1α; 6 hours post-LPS injection) was “suppressed” and the “IL-13 levels in plasma compared to vehicle” value (IL-13) was “increased”. For the same compound, the “LPS-induced eotaxin level in plasma” value (eotaxin) was “suppressed”.
In the case of O=C1NCCN1CCN1CCN([C@H]2C[C@H](c3ccc(F)cc3)c3ccccc32)CC1 [Lu 21-099], the “5-HT2A affinity, in words” value (5-HT2A; compared with irindalone) is listed as “weaker 5-HT2A affinity”.
